Laboratory results published in US11221329B2, “Treatment of neurological and neurodevelopmental diseases and disorders associated with aberrant ion channel expression and activity” (LIEBER INSTITUTE FOR BRAIN DEVELOPMENT, priority 2015, dated 2022).
“Also recorded” adds a separate entry of the source.

Tests used:
shTCF4 cells = assay: Whole-cell current-clamp recordings (AP spiking, mAHP/sAHP) in shTCF4 (TCF4 knockdown) mPFC layer 2/3 pyramidal neurons, acute brain slices; assay type: cell-based, rat; settings: shTCF4 cells
Procedure: (§1) Pregnant Wistar rats were obtained from Charles River Laboratories, Inc., maintained by SoBran on a 12-hour light cycle and fed ad libitum. In utero electroporation was performed as previously described (Chen et al., 2014; Maher and Loturco, 2012a). Electroporation was performed on embryonic day 16 (E16) and gestation age was confirmed during surgery. All plasmids were used at a final concentration of 1.5 μg/μl, and the mPFC was targeted for transfection. Pregnant dams were returned to the same housing conditions after recovery from surgery, and after litters were born, transfected rats were used for experiments at days P18-24.
(§2) Acute brain slices were obtained from rats and mice as described previously (Maher and Loturco, 2012b). Briefly, P18-24 male and female animals were deeply anesthetized with isoflurane and transcardially perfused with ice-cold oxygenated (95% O2 and 5% CO2) dissecting buffer containing (in mM): 83 NaCl, 2.5 KCl, 1 NaH2PO4, 26.2 NaHCO3, 22 glucose, 72 sucrose, 0.5 CaCl2, and 3.3 MgCl2. Animals were humanly sacrificed and decapitated and the brains were rapidly removed and immersed in ice-cold oxygenated dissection buffer. Coronal slices (300 μm) were cut using a vibratome (Microm HM650V), incubated in dissection buffer for 30-45 minutes at 34° C., and then stored at room temperature. Slices were visualized using IR differential interference microscopy (DIC) (Olympus BX51WI) and a CCD camera (QICAM, QImaging). Individual layer 2/3 pyramidal cells expressing EGFP in rat brain slices were visualized with epifluorescent illumination and a 43× Olympus LUMPlanFLN (0.8 numerical aperture) objective.
(§3) For all experiments, artificial cerebrospinal fluid (ACSF) was oxygenated (95% O2 and 5% CO2) and contained in (in mM): 125 NaCl, 25 NaHCO3, 1.25 NaH2PO4, 3 KCl, 25 dextrose, 1 MgCl2, and 2 CaCl2, pH 7.3. Patch pipettes were fabricated from borosilicate glass (N51A, King Precision Glass, Inc.) to a resistance of 2-5 MΩ. For current- and voltage-clamp measurements, pipettes were filled with (in mM): 125 potassium gluconate, 10 HEPES, 4 Mg-ATP, 0.3 Na-GTP, 0.1 EGTA, 10 phosophocreatine, 0.05% biocytin, adjusted to pH 7.3 with KOH. For all experiments GABAa receptors were blocked with SR-95531 (Gabazine, 5 μM, Ascent Scientific). For AHP current experiments, synaptic currents were blocked with DL-2-amino-5-phosphopentanoic acid (D,L-AP5, 100 μM, Ascent Scientific), 2,3, dioxo-6-nitro-1,2,3,4, tetrahydrobenzo-quinoxaline-7-sulfonamide (NBQX, 10 μM) and SR-95531 (Gabazine, 5 μM, Ascent Scientific). Ca2+-activated currents were blocked with Tetraethylammonium chloride (TEA, 1 mM, Abcam), apamin (100 nM, Abcam), and carbachol (10 μM, Abcam). Current signals were recorded with either a Multiclamp 700A (Molecular Devices) or with an Axopatch 200B amplifier (Molecular Devices) and were filtered at 2 kHz using a built-in Bessel filter and digitized at 10 kHz. Voltage signals were filtered at 2 kHz and digitized at 10 kHz. Data were acquired using Axograph on a Dell PC. Data acquisition was terminated when series resistance was >15 MΩ. For voltage clamp recordings, pyramidal cells were held at −60 mV. No holding current was used for current-clamp recordings.
(§4) Axograph was used on a Macintosh computer for analysis. To measure spike frequency, EGFP-positive layer 2/3 neurons of the mPFC were injected with a 600 ms depolarizing current pulses ranging from 50 to 500 pA at 50 pA increments with an 10 s inter-trial interval. Each current pulse was measured in triplicate, and the number of resulting APs was averaged. For analysis of fAHP amplitude, the second and third current evoked spikes within the 600 ms pulse were measured. The fAHP potential was measured by subtracting the voltage at the peak of the fAHP from the threshold potential for spike initiation (slope of AP exceeds 50 mV/ms). The mAHP potential was measured at the peak of the AHP that followed the 600 ms current pulse. […]

shCon cells = assay: Whole-cell current-clamp recordings (AP spiking, mAHP/sAHP) in shCon (control shRNA) mPFC layer 2/3 pyramidal neurons, acute brain slices; assay type: cell-based, rat
Procedure: as §1, §2, §3, §4

crTCF4 cells = assay: Whole-cell current-clamp AP spiking in crTCF4 (CRISPR-Cas9 TCF4 mutated) mPFC neurons; assay type: cell-based, rat
Procedure: as §1
(§5) Acute brain slices were obtained from rats and mice as described previously (Maher and Loturco, 2012b). […]
(§6) For all experiments, artificial cerebrospinal fluid (ACSF) was oxygenated (95% O2 and 5% CO2) and contained in (in mM): 125 NaCl, 25 NaHCO3, 1.25 NaH2PO4, 3 KCl, 25 dextrose, 1 MgCl2, and 2 CaCl2, pH 7.3. […] Current signals were recorded with either a Multiclamp 700A (Molecular Devices) or with an Axopatch 200B amplifier (Molecular Devices) and were filtered at 2 kHz using a built-in Bessel filter and digitized at 10 kHz.

crEmpty cells = assay: Whole-cell current-clamp AP spiking in crEmpty (CRISPR control) mPFC neurons; assay type: cell-based, rat
Procedure: as §1, §5, §6

TCF4+/tr cells = assay: Whole-cell current-clamp AP spiking in mPFC layer 2/3 neurons of the PTHS mouse model; assay type: cell-based
Procedure: (§7) In the mouse model used for Pitt-Hopkins syndrome (Sweatt, 2013) mice are heterozygous for a deletion of the DNA-binding domain of the Transcription Factor 4 (B6; 129-TCF4tm1Zhu/J; stock number 013598, Jackson Laboratory, Bar Harbor, Me.) (Zhuang et al., 1996). Control mouse experiments were conducted with wild-type littermates. Mice were maintained by SoBran on a 12-hour light cycle and fed ad libitum.
as §5
(§8) For all experiments, artificial cerebrospinal fluid (ACSF) was oxygenated (95% O2 and 5% CO2) and contained in (in mM): 125 NaCl, 25 NaHCO3, 1.25 NaH2PO4, 3 KCl, 25 dextrose, 1 MgCl2, and 2 CaCl2, pH 7.3. […] Current signals were recorded with either a Multiclamp 700A (Molecular Devices) or with an Axopatch 200B amplifier (Molecular Devices) and were filtered at 2 kHz using a built-in Bessel filter and digitized at 10 kHz. […]
(§9) Axograph was used on a Macintosh computer for analysis. […] Each current pulse was measured in triplicate, and the number of resulting APs was averaged. For analysis of fAHP amplitude, the second and third current evoked spikes within the 600 ms pulse were measured. The fAHP potential was measured by subtracting the voltage at the peak of the fAHP from the threshold potential for spike initiation (slope of AP exceeds 50 mV/ms). […]

[1] = test system: prefrontal neurons from wildtype littermates; assay: Whole-cell current-clamp AP output in prefrontal neurons from wildtype littermates; assay type: cell-based, mouse
Procedure: as §7, §5, §8, §9

KCNQ1 = KCNQ1 (Homo sapiens, UniProt P51787); settings: KCNQ subtype-selective blocker; Soh and Tzingounis, 2010; cited from earlier work
KCNQ2 = KCNQ2 (Homo sapiens, UniProt O43526); settings: KCNQ subtype-selective blocker; Soh and Tzingounis, 2010; cited from earlier work

Structure (SMILES)	effect on the frequency of APs generated in response to increasing current injections (shTCF4 cells; A-803467 200 nM bath application, significant for current pulses 350-500 pA, N=11, p<0.05)	effect on firing frequency (shCon cells; A-803467, N=7, p=0.14)	effect on the frequency of APs (crTCF4 cells; A-803467, significant for current pulses 400-500 pA, N=8, p=0.039)	effect on AP frequency (crEmpty cells; A-803467, p=0.15)	effect on the frequency of APs (TCF4+/tr cells; A-803467, significant for current pulses 250-350 pA, N=8)	effect on action potential output ([1]; A-803467, p=0.06, N=5)	effect on the frequency of APs generated in response to current injections (shTCF4 cells; UCL2077 10 μM, before vs after, within neuron, significant for current pulses 250-500 pA, N=17, p=0.0002)	amplitude of the sAHP after application (shTCF4 cells; UCL2077, before −2.88±0.42 mV, N=19, p<0.05) [mV]	amplitude of the mAHP after application (shTCF4 cells; UCL2077, before −4.43±0.55 mV, N=19, p=0.003) [mV]	effect on the frequency of APs (spiking) (shCon cells; UCL2077, N=8, p=0.35)	amplitude of the sAHP after application (shCon cells; UCL2077, before −2.60±0.42 mV, N=9, not significant) [mV]	amplitude of the mAHP after application (shCon cells; UCL2077, before −3.78±0.66 mV, N=9, not significant) [mV]	effect on the frequency of APs (crTCF4 cells; UCL2077, significant for current pulses 400-500 pA, N=7, p=0.045)	effect on AP frequency (crEmpty cells; UCL2077, p=0.99)	effect on the frequency of AP spiking (TCF4+/tr cells; UCL2077, N=8)	effect on action potential output ([1]; UCL2077, p=0.58, N=11)	inhibition of KCNQ1 (KCNQ1)	inhibition of KCNQ2 (KCNQ2)
COc1cc(NC(=O)c2ccc(-c3ccc(Cl)cc3)o2)cc(OC)c1 [A-803467, 5-(4-Chlorophenyl)-N-(3,5-dimethoxyphenyl)-2-furancarboxamide]	effective at increasing firing frequency; also recorded: significantly increased firing	had no effect on firing frequency	effective at increasing firing frequency; also recorded: significantly increased firing frequency	had no effect on firing frequency; also recorded: No effect on AP frequency	effective at rescuing AP output; also recorded: significantly increased firing frequency	has no effect on action potential output	–	–	–	–	–	–	–	–	–	–	–	–
c1ccc(C(NCc2cccnc2)(c2ccccc2)c2ccccc2)cc1 [UCL2077, N-Trityl-3-pyridinemethanamine]	–	–	–	–	–	–	effective at increasing the spiking frequency; also recorded: significantly increased firing frequency	−2.53±0.38	−3.736±0.49	neither UCL2077 (p=0.35) nor JNJ303 (p=0.11) had an effect on spiking	−2.69±0.48	−4.01±0.66	significantly increased firing frequency	No effect on AP frequency	had no effect; also recorded: has no effect on the frequency of AP spiking	has no effect on action potential output	strongly inhibits	strongly inhibits
